Assay results: ChEMBL document CHEMBL1201862, “PubChem BioAssay data set” (2004)
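Protocol summary: plate cells (96-well), add compound at 5 concentrations, incubate 48 h, interpolate endpoints linearly. GI50 is the concentration that inhibits growth by half.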 Calls of active or inactive are those of the source. No stated cut-off is given here; in the data, active = GI50 up to about 1.1 µM and inactive = higher.

Legend:
Experiment in all cases: inhibition of tumour cell growth, NCI panel, 48 h
HT-29 = tested on: HT-29
UACC-257 = tested on: UACC-257
ACHN = tested on: ACHN
COLO 205 = tested on: COLO 205
786-0 = tested on: 786-0
HOP-92 = tested on: HOP-92
NCI-H226 = tested on: NCI-H226
Malme-3M = tested on: Malme-3M
OVCAR-4 = tested on: OVCAR-4
SK-MEL-28 = tested on: SK-MEL-28
SF-268 = tested on: SF-268
OVCAR-5 = tested on: OVCAR-5
DLD-1 = tested on: DLD-1
TK-10 = tested on: TK-10
K562 = tested on: K562
SN12C = tested on: SN12C
MCF7 = tested on: MCF7
MDA-MB-231 = tested on: MDA-MB-231
MDA-MB-435 = tested on: MDA-MB-435
A498 = tested on: A498

SMILES | GI50 (HT-29) | GI50 (UACC-257) | GI50 (ACHN) | GI50 (COLO 205) | GI50 (786-0) | GI50 (HOP-92) | GI50 (NCI-H226) | GI50 (Malme-3M) | GI50 (OVCAR-4) | GI50 (SK-MEL-28) | GI50 (SF-268) | GI50 (OVCAR-5) | GI50 (DLD-1) | GI50 (TK-10) | GI50 (K562) | GI50 (SN12C) | GI50 (MCF7) | GI50 (MDA-MB-231) | GI50 (MDA-MB-435) | GI50 (A498)
COc1cc(/C=C2\Cc3ccccc3C2=O)cc(OC)c1OC | > 100 µM (inactive) | > 100 µM (inactive) | > 100 µM (inactive) | > 100 µM (inactive) | > 100 µM (inactive) | 77.3 µM (inactive) | > 100 µM (inactive) | > 100 µM (inactive) | > 100 µM (inactive) | > 100 µM (inactive) | > 100 µM (inactive) | > 100 µM (inactive) | > 100 µM (inactive) | > 100 µM (inactive) | > 100 µM (inactive) | > 100 µM (inactive) |  |  |  | 
OCCn1cnc2c(SCc3ccccc3)ncnc21 | > 100 µM (inactive) | > 100 µM (inactive) | > 100 µM (inactive) | 95.5 µM (inactive) | > 100 µM (inactive) | > 100 µM (inactive) | > 100 µM (inactive) | > 100 µM (inactive) | > 100 µM (inactive) | > 100 µM (inactive) | 71.8 µM (inactive) | > 100 µM (inactive) |  | > 100 µM (inactive) | 79.4 µM (inactive) | > 100 µM (inactive) | > 100 µM (inactive) | > 100 µM (inactive) | > 100 µM (inactive) | > 100 µM (inactive)
NC(Cc1ccccc1)c1nn[nH]n1 (stereo not given) | > 100 µM (inactive) | > 100 µM (inactive) | > 100 µM (inactive) | > 100 µM (inactive) | > 100 µM (inactive) | > 100 µM (inactive) | > 100 µM (inactive) | > 100 µM (inactive) | > 100 µM (inactive) | > 100 µM (inactive) | > 100 µM (inactive) | > 100 µM (inactive) |  | > 100 µM (inactive) | 0.0476 µM (active) | > 100 µM (inactive) | > 100 µM (inactive) | > 100 µM (inactive) | > 100 µM (inactive) | > 100 µM (inactive)
O=C(O)c1cc(C(=O)O)cc(N2C(=O)c3ccccc3C2=O)c1 | > 100 µM (inactive) | > 100 µM (inactive) | > 100 µM (inactive) | > 100 µM (inactive) | > 100 µM (inactive) | > 100 µM (inactive) | > 100 µM (inactive) | > 100 µM (inactive) | > 100 µM (inactive) | > 100 µM (inactive) | > 100 µM (inactive) | > 100 µM (inactive) |  | > 100 µM (inactive) | > 100 µM (inactive) | > 100 µM (inactive) | > 100 µM (inactive) | > 100 µM (inactive) | > 100 µM (inactive) | > 100 µM (inactive)
O=C(C1OC1c1ccc(Cl)cc1)C12CC3CC(CC(C3)C1)C2 (stereo not given) | 21 µM (inactive) | 21.6 µM (inactive) | 35.4 µM (inactive) | 19.5 µM (inactive) | 16.3 µM (inactive) | 16.9 µM (inactive) | 18.3 µM (inactive) | 22.4 µM (inactive) | 15.4 µM (inactive) | 16.5 µM (inactive) | 20.8 µM (inactive) | 24.2 µM (inactive) |  | 26.7 µM (inactive) | 25.1 µM (inactive) | 14.7 µM (inactive) | 33.7 µM (inactive) | 23.6 µM (inactive) | 14.3 µM (inactive) | 23.7 µM (inactive)
COC(=O)c1cc2c3c(c1)Oc1cc(C(=O)OC)cc4c1C3c1c(cc(C(=O)OC)cc1O4)O2 | 0.802 µM (active) | 27.4 µM (inactive) | 11.7 µM (inactive) | 23.7 µM (inactive) | 11 µM (inactive) | 19.4 µM (inactive) | 3.82 µM (inactive) | 8.99 µM (inactive) | 34 µM (inactive) | 34 µM (inactive) | 9.18 µM (inactive) | 24.5 µM (inactive) |  | 15.3 µM (inactive) | 11.5 µM (inactive) | 32.7 µM (inactive) | 10.6 µM (inactive) | 17.1 µM (inactive) | 9.68 µM (inactive) | > 76.2 µM (inactive)
O=C(N/S(=N/S(=O)(=O)c1ccc(Br)cc1)C(Cl)(Cl)Cl)c1ccccc1 (stereo not given) | > 100 µM (inactive) | > 100 µM (inactive) | > 100 µM (inactive) | > 100 µM (inactive) | > 100 µM (inactive) | 26.2 µM (inactive) | > 100 µM (inactive) | > 100 µM (inactive) | > 100 µM (inactive) | > 100 µM (inactive) | > 100 µM (inactive) | > 100 µM (inactive) |  | > 100 µM (inactive) | > 100 µM (inactive) | > 100 µM (inactive) | > 100 µM (inactive) | > 100 µM (inactive) | > 100 µM (inactive) | > 100 µM (inactive)
CCOP(=O)(OCC)C(C#N)Cc1ccco1 (stereo not given) | > 10 µM (inactive) | > 10 µM (inactive) | > 10 µM (inactive) | > 10 µM (inactive) | > 10 µM (inactive) | > 10 µM (inactive) | > 10 µM (inactive) | > 10 µM (inactive) | > 10 µM (inactive) | > 10 µM (inactive) | > 10 µM (inactive) | > 10 µM (inactive) |  | > 10 µM (inactive) | > 10 µM (inactive) | > 10 µM (inactive) | > 10 µM (inactive) | > 10 µM (inactive) | > 10 µM (inactive) | > 10 µM (inactive)
CC(C)(C)C1CCN(C(=O)c2ccccc2)CC1 | > 100 µM (inactive) | 41.1 µM (inactive) | > 100 µM (inactive) | > 100 µM (inactive) | > 100 µM (inactive) |  | > 100 µM (inactive) | 43.6 µM (inactive) |  |  |  | > 100 µM (inactive) | > 100 µM (inactive) | > 100 µM (inactive) | 63.4 µM (inactive) | > 100 µM (inactive) |  |  |  | > 100 µM (inactive)
CCCCCCCCC1C(C)c2c([nH]c3ccccc23)C2C(=O)N(c3ccccc3)C(=O)C21 (stereo not given) | 4.7 µM (inactive) | > 10 µM (inactive) | 11.5 µM (inactive) |  | 13.1 µM (inactive) |  | 11.8 µM (inactive) | 19.5 µM (inactive) | 4.3 µM (inactive) | 16.8 µM (inactive) |  | 18.3 µM (inactive) | 18.9 µM (inactive) | 20.1 µM (inactive) | 3.9 µM (inactive) | 11.4 µM (inactive) |  |  |  | 21.1 µM (inactive)
CC(Nc1ccc(S(=O)(=O)NC(=N)N)cc1)c1c2ccccc2nc2ccccc12 (stereo not given) | 35.4 µM (inactive) | 35.3 µM (inactive) | 24.7 µM (inactive) | 57.7 µM (inactive) | 36 µM (inactive) | 18.5 µM (inactive) | 19.6 µM (inactive) | 22.4 µM (inactive) | 10.1 µM (inactive) | 44.9 µM (inactive) | 31 µM (inactive) | 20.2 µM (inactive) | 18.1 µM (inactive) | 47.4 µM (inactive) | 27.6 µM (inactive) | 30 µM (inactive) |  |  |  | 
O=c1[nH]c2cc([N+](=O)[O-])ccc2nc1/C(=N\NO)C(O)c1ccc([N+](=O)[O-])cc1 (stereo not given) | > 100 µM (inactive) | > 100 µM (inactive) | 52.5 µM (inactive) | > 100 µM (inactive) | > 100 µM (inactive) | > 100 µM (inactive) | > 100 µM (inactive) | > 100 µM (inactive) | > 100 µM (inactive) | > 100 µM (inactive) | > 100 µM (inactive) | > 100 µM (inactive) | > 100 µM (inactive) |  | > 100 µM (inactive) | 98.9 µM (inactive) |  |  |  | 
NC(=O)CCC(Nc1c2ccccc2[n+]([O-])c2ccccc12)C(=O)O (stereo not given) |  |  | 36.6 µM (inactive) | 49.1 µM (inactive) | > 100 µM (inactive) |  | 64.6 µM (inactive) | 32.7 µM (inactive) | 84.1 µM (inactive) | 26.4 µM (inactive) | 64.7 µM (inactive) | > 100 µM (inactive) | 27.8 µM (inactive) | > 100 µM (inactive) | 37.8 µM (inactive) | 71.8 µM (inactive) |  |  |  | > 100 µM (inactive)
CC(C)SC(=S)Sc1c(Cl)c(Cl)nc(Cl)c1Cl | 3.4 µM (inactive) | 3.52 µM (inactive) | 6.98 µM (inactive) | 8.55 µM (inactive) | 2.33 µM (inactive) | 7.69 µM (inactive) | 24.9 µM (inactive) | 15.7 µM (inactive) | 13.6 µM (inactive) | 18.7 µM (inactive) | 16.9 µM (inactive) | 16.3 µM (inactive) |  | 5.97 µM (inactive) | 2.97 µM (inactive) | 13 µM (inactive) | 4.06 µM (inactive) | 12.7 µM (inactive) | 7.38 µM (inactive) | 17.1 µM (inactive)
C1=Cc2nc1c(-c1ccccc1)c1ccc([n-]1)c(-c1ccccc1)c1nc(c(-c3ccccc3)c3ccc([n-]3)c2-c2ccccc2)C=C1.[Zn+2] | > 100 µM (inactive) | > 100 µM (inactive) | > 100 µM (inactive) | > 100 µM (inactive) | > 100 µM (inactive) | > 100 µM (inactive) | > 100 µM (inactive) | > 100 µM (inactive) | > 100 µM (inactive) | > 100 µM (inactive) | > 100 µM (inactive) | > 100 µM (inactive) | 70.1 µM (inactive) | > 100 µM (inactive) | > 100 µM (inactive) | > 100 µM (inactive) |  |  |  | 
CC(C)(C)[C@H]1CC[C@@](O)(c2ccccc2)CC1.CC(C)(C)[C@H]1CC[C@](O)(c2ccccc2)CC1 | 16.2 µM (inactive) | 22.2 µM (inactive) | 20 µM (inactive) | 17.7 µM (inactive) | 18 µM (inactive) |  | 11.6 µM (inactive) | 29.9 µM (inactive) |  | 22.5 µM (inactive) |  | 44.7 µM (inactive) | 25.4 µM (inactive) | 19.4 µM (inactive) | 15.2 µM (inactive) | 18.8 µM (inactive) |  |  |  | 19.5 µM (inactive)
